Read-outs that look alike come from different tables or passages of the source.
Key:
[1] = system: Ras farnesylation in H-ras Me 12/+ cells; assay: Gel shift assay: inhibition of Ras farnesylation in H-ras Me 12/+ cells; assay type: cell-based; conditions: 18-hour incubation, read-out: Inhibition of Ras Farnesylation (Minimum Effective Dose)
Experimental: (§1) Twenty-four hours after planting 2×10^6 ras-transformed cells per treatment condition, the farnesylation inhibitor is added at varying concentrations. Following an 18-hour incubation period, cells are lysed in phosphate-buffered saline containing 1% Triton X-100, 0.5% sodium deoxycholate, and 0.1% SDS, pH 7.4 in the presence of several protease inhibitors (PMSF, antipain, leupeptin, pepstatin A, and aprotinin all at 1 μg/mL). Ras protein is immunoprecipitated from the supernatants by the addition of 3 μg v-H-ras Ab-2 (Y13-259 antibody from Oncogene Science). After overnight immunoprecipitation, 30 μL of a 50% protein G-Sepharose slurry (Pharmacia) is added followed by 45-minute incubation. Pellets are resuspended in 2× tris-glycine loading buffer (Novex) containing 5% B-mercaptoethanol and then denatured by 5 minutes boiling prior to electrophoresis on 14% Tris-glycine SDS gels. Using Western transfer techniques, proteins are transferred to nitrocellulose membranes followed by blocking in blocking buffer. Upon overnight incubation with primary antibody (pan-ras Ab-2 from Oncogene Science), an antimouse HRP conjugate secondary antibody (Amersham) is employed for detection of the ras protein. Blots are developed using ECL techniques (Amersham).
(§2) The data in Table 1 show farnesyl protein transferase inhibitory activity, and activity in the gel shift assay against ras protein of selected compounds of Formula I.

[2] = system: Ras farnesylation in H-ras-NIH3T3 cells; assay: Gel shift assay: inhibition of Ras farnesylation in H-ras-NIH3T3 cells; assay type: cell-based; conditions: 18-hour incubation, read-out: Inhibition of Ras Farnesylation (Minimum Effective Dose)
Experimental: as §1, §2

[3] = target: T1, rat brain farnesyl protein transferase (Rattus norvegicus, UniProt Q02293+Q04631); assay: Protein:farnesyltransferase (PFT/FPT) inhibitory activity assay; assay type: biochemical
T1 construct: 40-fold purified rat brain farnesyl protein transferase; from tissue; host or cells: rat brain

[4] = system: human lung carcinoma with a k-ras mutation; conditions: nude mice; cited from earlier work
[5] = Hepes (without 5 mM phosphate), read-out: Farnesyl Protein Transferase Inhibition, Hepes, IC50
[6] = Hepes/5 mM PO4^-3, pH 7.4, read-out: Farnesyl Protein Transferase Inhibition, Hepes/5 mM PO4^-3, IC50

SMILES	IC50 [3, 5] [nM]	IC50 [3, 6] [nM]	minimal effective concentration [1] [µM]	minimal effective concentration [2] [µM]	blocks the growth of a human lung carcinoma with a k-ras mutation [4]
COC(=O)[C@H](Cc1cncn1C)NC(=O)C(Cc1cccc2ccccc12)Cc1cccc2ccccc12 [Example 6, (S)-3-(3-Methyl-3H-imidazol-4-yl)-2-(3-naphthalen-1-yl-2-naphthalen-1-ylmethyl-propionylamino)-propionic acid, methyl ester]	420	220	1	2.5	–
O=C(N[C@@H](Cc1c[nH]cn1)C(=O)NCCOCc1ccccc1)C(Cc1cccc2ccccc12)Cc1cccc2ccccc12 [Example 23, (S)-N-[1-(2-Benzyloxy-ethylcarbamoyl)-2-(1H-imidazol-4-yl)-ethyl]-3-naphthalen-1-yl-2-naphthalen-1-ylmethyl-propionamide]	740	550	5	–	–
O=C(N[C@@H](Cc1c[nH]cn1)C(=O)NCCc1c[nH]cn1)C(Cc1cccc2ccccc12)Cc1cccc2ccccc12 [Example 27, (S)-N-{2-(1H-Imidazol-4-yl)-1-[2-(1H-imidazol-4-yl)-ethylcarbamoyl]-ethyl}-3-naphthalen-1-yl-2-naphthalen-1-ylmethyl-propionamide]	4800	3900	10	–	–
CNC(=O)[C@H](Cc1c[nH]cn1)NC(=O)C(Cc1cccc2ccccc12)Cc1cccc2ccccc12 [Example 33, (S)-N-[2-(1H-Imidazol-4-yl)-1-methylcarbamoyl-ethyl]-3-naphthalen-1-yl-2-naphthalen-1-ylmethyl-propionamide]	610	440	1	1	–
COC(=O)[C@H](Cc1c[nH]cn1)NC(=O)C(CC1CCCC2CCCCC21)CC1CCCC2CCCCC21 (stereo partly drawn) [Example 36, (S)-2-[3-(Decahydro-naphthalen-1-yl)-2-(decahydro-naphthalen-1-ylmethyl)-propionylamino]-3-(1H-imidazol-4-yl)-propionic acid, methyl ester]	310	370	25	–	–
COC(=O)[C@H](Cc1c[nH]cn1)NC(=O)C(Cc1cccc2c1CCCC2)Cc1cccc2c1CCCC2 [Example 37, (S)-3-(1H-Imidazol-4-yl)-2-[3-(5,6,7,8-tetrahydro-naphthalen-1-yl)-2-(5,6,7,8-tetrahydro-naphthalen-1-ylmethyl)-propionylamino]-propionic acid, methyl ester]	420	180	10	–	–
COC(=O)[C@H](Cc1c[nH]cn1)NC(=O)C(Cc1ccccc1)Cc1cccc2ccccc12 (stereo partly drawn) [Example 65, (S)-2-(2-Benzyl-3-naphthalen-1-yl-propionylamino)-3-(1H-imidazol-4-yl)-propionic acid, methyl ester]	1600	2900	–	25	–
CSCC[C@H](NC(=O)c1ccc(NC[C@@H](N)CS)cc1-c1ccccc1)C(=O)O [FTI-276]	–	–	–	–	blocks the growth in nude mice of a human lung carcinoma with a k-ras mutation

The next lines start with results.

IC50 [3, 5] [nM]	IC50 [3, 6] [nM]	SMILES	minimal effective concentration [1] [µM]	minimal effective concentration [2] [µM]	blocks the growth of a human lung carcinoma with a k-ras mutation [4]
260	300	COC(=O)[C@H](Cc1c[nH]cn1)NC(=O)C(Cc1cccc2ccccc12)Cc1cccc2ccccc12 [Example 1, (S)-3-(1H-Imidazol-4-yl)-2-(3-naphthalen-1-yl-2-naphthalen-1-ylmethyl-propionylamino)-propionic acid, methyl ester]	2.5	5	–
130	130	CCOC(=O)[C@H](Cc1c[nH]cn1)NC(=O)C(Cc1cccc2ccccc12)Cc1cccc2ccccc12 [Example 5, (S)-3-(1H-Imidazol-4-yl)-2-(3-naphthalen-1-yl-2-naphthalen-1-ylmethyl-propionylamino)-propionic acid, ethyl ester]	2.5	–	–
110	100	CCCOC(=O)[C@H](Cc1c[nH]cn1)NC(=O)C(Cc1cccc2ccccc12)Cc1cccc2ccccc12 [Example 7, (S)-3-(1H-Imidazol-4-yl)-2-(3-naphthalen-1-yl-2-naphthalen-1-ylmethyl-propionylamino)-propionic acid, propyl ester]	5	–	–
180	160	CC(C)OC(=O)[C@H](Cc1c[nH]cn1)NC(=O)C(Cc1cccc2ccccc12)Cc1cccc2ccccc12 [Example 8, (S)-3-(1H-Imidazol-4-yl)-2-(3-naphthalen-1-yl-2-naphthalen-1-ylmethyl-propionylamino)-propionic acid, isopropyl ester]	5	5	–
